Values quoted from earlier work in patent publication US20040092577A1, “Microparticle pharmaceutical compositions for intratumoral delivery” (priority 2002, published 2004).

Legend:
[1] = system: MDA-468 breast cancer cells; conditions: Lankmela et al.
[2] = gels, 0.6% loading; Zentner 2001

COc1cccc2c1C(=O)c1c(O)c3c(c(O)c1C2=O)C[C@@](O)(C(=O)CO)C[C@@H]3O[C@H]1C[C@H](N)[C@H](O)[C@H](C)O1 [doxorubicin]
rate of uptake α [1]: 0.016 s⁻¹

CC(=O)O[C@H]1C(=O)[C@@]2(C)[C@H]([C@H](OC(=O)c3ccccc3)[C@]3(O)C[C@H](OC(=O)[C@H](O)[C@@H](NC(=O)c4ccccc4)c4ccccc4)C(C)=C1C3(C)C)[C@]1(OC(C)=O)CO[C@@H]1C[C@@H]2O [Paclitaxel]
duration of delivery [2]: 1 to 6 weeks
